Experimental data: paper PMC12472322, “Structure–Activity Relationship Study of 3-Alkynyl-6-aryl-isothiazolo[4,3-b]pyridines as Dual Inhibitors of the Lipid Kinases PIKfyve and PIP4K2C” (Pharmaceuticals, 2025)

What was measured:
PIKfyve = biological target: T1, PIKfyve (Homo sapiens, UniProt Q9Y2I7); assay: biochemical PIKfyve mobility shift assay (Nanosyn)
T1 construct: purchased Nanosyn, Santa Clara, CA, USA (contract assay service)

VEEV (TC-83) = assay: microbe, parasite or virus in culture; type: cell-based; settings: Venezuelan equine encephalitis virus, U-87 MG, 18 h, read-out: VEEV (TC-83) EC50
[1] = cell viability (AlamarBlue) in SARS-CoV-2-infected Vero E6/TMPRSS2 cells; type: cell-based; settings: African green monkey, Vero E6/TMPRSS2 cells infected with SARS-CoV-2, half-maximal cytotoxic concentration, read-out: SARS-CoV2 CC50
U-87 MG cells = settings: half-maximal cytotoxic concentration
PIP4K2C = biological target: T2, PIP4K2C (Homo sapiens, UniProt Q8TBX8); assay: PIP4K2C binding assay (DiscoverX/Kinome platform)
T2 sequence (Q8TBX8 1-421): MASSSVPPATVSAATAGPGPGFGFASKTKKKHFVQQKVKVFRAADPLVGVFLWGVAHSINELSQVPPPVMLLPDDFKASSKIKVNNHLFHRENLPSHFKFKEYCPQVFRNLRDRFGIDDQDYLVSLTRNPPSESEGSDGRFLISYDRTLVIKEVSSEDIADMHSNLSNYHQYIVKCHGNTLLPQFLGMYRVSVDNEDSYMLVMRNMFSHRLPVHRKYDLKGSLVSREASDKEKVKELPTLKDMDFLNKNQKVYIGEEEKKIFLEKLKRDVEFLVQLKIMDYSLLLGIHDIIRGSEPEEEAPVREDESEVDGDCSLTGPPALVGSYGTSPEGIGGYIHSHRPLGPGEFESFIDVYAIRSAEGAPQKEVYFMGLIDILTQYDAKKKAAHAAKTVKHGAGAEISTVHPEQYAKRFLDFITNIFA

Capan-1 = assay: cell proliferation assay (MTS, 72 h); settings: Homo sapiens, CAPAN-1, 72 h, read-out: CC50 Capan-1
HCT-116 = assay: cell proliferation assay (MTS, 72 h); settings: Homo sapiens, HCT-116, 72 h, read-out: CC50 HCT-116
LN-229 = assay: cell proliferation assay (MTS, 72 h); settings: Homo sapiens, LN-229, 72 h, read-out: CC50 LN-229
NCI-H460 = assay: cell proliferation assay (MTS, 72 h); settings: Homo sapiens, NCI-H460, 72 h, read-out: CC50 NCI-H460
DND-41 = assay: cell proliferation assay (MTS, 72 h); settings: DND41, 72 h, read-out: CC50 DND-41
HL-60 = assay: cell proliferation assay (MTS, 72 h); settings: Homo sapiens, HL-60, 72 h, read-out: CC50 HL-60
K-562 = assay: cell proliferation assay (MTS, 72 h); settings: Homo sapiens, K562, 72 h, read-out: CC50 K-562
Z-138 = assay: cell proliferation assay (MTS, 72 h); settings: Homo sapiens, Z-138, 72 h, read-out: CC50 Z-138
SARS-CoV-2 = assay: microbe, parasite or virus in culture; type: cell-based, severe acute respiratory syndrome coronavirus 2; settings: for EC50: Severe acute respiratory syndrome coronavirus 2, VeroE6/TMPRSS2, 24 h, read-out: SARS-CoV2 EC50

T1 sequence (Q9Y2I7 whole entry): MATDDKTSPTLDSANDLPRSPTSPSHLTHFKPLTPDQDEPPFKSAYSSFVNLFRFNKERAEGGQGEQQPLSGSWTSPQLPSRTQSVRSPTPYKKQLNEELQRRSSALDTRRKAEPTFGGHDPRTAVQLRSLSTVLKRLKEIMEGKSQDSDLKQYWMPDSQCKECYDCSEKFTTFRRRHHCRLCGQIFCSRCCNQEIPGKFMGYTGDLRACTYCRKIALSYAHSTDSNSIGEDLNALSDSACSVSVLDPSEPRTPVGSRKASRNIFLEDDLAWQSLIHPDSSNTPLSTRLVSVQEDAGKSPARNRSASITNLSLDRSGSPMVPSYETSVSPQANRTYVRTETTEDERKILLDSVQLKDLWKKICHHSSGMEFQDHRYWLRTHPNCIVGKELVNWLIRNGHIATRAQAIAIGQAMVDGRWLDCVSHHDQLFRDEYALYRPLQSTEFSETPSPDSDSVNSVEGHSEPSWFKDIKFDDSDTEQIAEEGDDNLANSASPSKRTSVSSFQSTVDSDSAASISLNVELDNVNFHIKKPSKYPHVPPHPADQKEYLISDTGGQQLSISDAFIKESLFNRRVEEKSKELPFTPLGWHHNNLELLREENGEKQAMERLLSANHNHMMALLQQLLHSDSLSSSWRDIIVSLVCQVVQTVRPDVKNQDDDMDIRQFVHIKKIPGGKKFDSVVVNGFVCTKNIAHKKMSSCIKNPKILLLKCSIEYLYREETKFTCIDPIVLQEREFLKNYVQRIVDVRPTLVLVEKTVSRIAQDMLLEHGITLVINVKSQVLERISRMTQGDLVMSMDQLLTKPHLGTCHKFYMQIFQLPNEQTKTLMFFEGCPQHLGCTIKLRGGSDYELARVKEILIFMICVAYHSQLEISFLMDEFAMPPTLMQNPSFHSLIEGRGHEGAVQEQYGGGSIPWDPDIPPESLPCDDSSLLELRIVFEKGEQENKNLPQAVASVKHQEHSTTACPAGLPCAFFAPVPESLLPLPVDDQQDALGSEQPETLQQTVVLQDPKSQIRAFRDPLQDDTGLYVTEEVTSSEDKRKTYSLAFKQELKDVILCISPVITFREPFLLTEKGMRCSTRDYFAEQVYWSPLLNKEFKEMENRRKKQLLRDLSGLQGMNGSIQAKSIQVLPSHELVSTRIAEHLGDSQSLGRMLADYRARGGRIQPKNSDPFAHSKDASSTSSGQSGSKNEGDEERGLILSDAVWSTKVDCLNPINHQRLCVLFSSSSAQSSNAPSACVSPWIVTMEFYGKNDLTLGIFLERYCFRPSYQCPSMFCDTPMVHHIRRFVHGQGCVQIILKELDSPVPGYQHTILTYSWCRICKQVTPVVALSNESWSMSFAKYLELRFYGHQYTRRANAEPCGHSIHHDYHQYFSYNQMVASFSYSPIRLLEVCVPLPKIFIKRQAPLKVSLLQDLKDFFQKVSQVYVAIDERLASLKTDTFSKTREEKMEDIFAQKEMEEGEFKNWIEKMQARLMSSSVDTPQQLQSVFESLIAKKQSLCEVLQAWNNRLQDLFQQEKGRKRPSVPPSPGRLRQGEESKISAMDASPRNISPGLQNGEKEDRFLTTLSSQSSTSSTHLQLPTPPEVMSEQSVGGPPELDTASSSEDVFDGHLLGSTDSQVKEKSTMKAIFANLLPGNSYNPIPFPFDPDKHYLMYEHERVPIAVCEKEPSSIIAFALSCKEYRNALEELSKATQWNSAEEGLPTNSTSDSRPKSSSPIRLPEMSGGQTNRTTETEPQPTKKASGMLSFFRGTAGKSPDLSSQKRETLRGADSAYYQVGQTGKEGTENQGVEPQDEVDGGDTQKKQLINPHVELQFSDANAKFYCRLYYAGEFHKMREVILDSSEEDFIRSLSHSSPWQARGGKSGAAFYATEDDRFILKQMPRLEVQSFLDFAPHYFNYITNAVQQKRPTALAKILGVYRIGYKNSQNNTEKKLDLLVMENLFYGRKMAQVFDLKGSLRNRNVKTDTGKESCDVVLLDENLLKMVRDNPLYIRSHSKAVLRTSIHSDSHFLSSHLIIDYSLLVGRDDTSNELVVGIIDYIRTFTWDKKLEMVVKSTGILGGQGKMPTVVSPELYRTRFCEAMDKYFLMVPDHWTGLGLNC

SMILES | IC50 (PIKfyve; Table 5 column) | IC50 (PIKfyve; Tables 1-4 and text) | EC50 (VEEV (TC-83)) | CC50 [1] | VEEV (TC-83) CC50 (U-87 MG cells) | Kd (PIP4K2C) | CC50 (Capan-1) | CC50 (HCT-116) | CC50 (LN-229) | CC50 (NCI-H460) | CC50 (DND-41) | CC50 (HL-60) | CC50 (K-562) | CC50 (Z-138) | EC50 (SARS-CoV-2) | IC50 (PIKfyve; values given in text in nM) | fold more potent on PIKfyve than 7o (PIKfyve; ratio of IC50 values) | fold more potent on PIKfyve than 7h (PIKfyve; ratio of IC50 values) | fold less potent on PIKfyve relative to RMC-113 (PIKfyve; ratio of IC50 values) | SARS-CoV-2 screening, result in words (SARS-CoV-2; Vero E6/TMPRSS2 cells)
COc1cccc(-c2cnc3c(C#Cc4cccnc4)snc3c2)c1 [Compound 3a, 6-(3-Methoxyphenyl)-3-(pyridin-3-ylethynyl)isothiazolo[4,3-b]pyridine] | 6.8 nM | 6.8 nM | 6.88 ± 0.33 µM | < 10 µM | >10 µM | 0.19 µM | – | – | – | – | – | – | – | – | – | – | – | – | – | –
COc1ccccc1-c1cnc2c(C#Cc3cccnc3)snc2c1 [Compound 3b, 6-(2-Methoxyphenyl)-3-(pyridin-3-ylethynyl)isothiazolo[4,3-b]pyridine] | – | 6.8 nM | – | – | – | – | 1.02 ± 0.09 µM | 1.02 ± 1.24 µM | 3.28 ± 1.24 µM | 2.97 ± 0.75 µM | 3.92 ± 0.72 µM | 1.48 ± 1.13 µM | 5.27 ± 0.59 µM | 1.81 ± 0.69 µM | – | – | – | – | – | –
COc1cc(-c2cnc3c(C#Cc4cccnc4)snc3c2)ccc1N [Compound 3f, 2-Methoxy-4-(3-(pyridin-3-ylethynyl)isothiazolo[4,3-b]pyridin-6-yl)aniline] | 2.8 nM | 2.8 nM | 0.26 ± 0.08 µM | > 20 µM | >20 µM | 0.044 µM | – | – | – | – | – | – | – | – | 2.74 ± 0.04 µM | – | – | – | – | –
Fc1ccc(-c2cnc3c(C#Cc4cccnc4)snc3c2)cc1 [Compound 3g, 6-(4-Fluorophenyl)-3-(pyridin-3-ylethynyl)isothiazolo[4,3-b]pyridine] | – | 10 nM | – | – | – | – | 0.73 ± 0.23 µM | 0.81 ± 0.16 µM | 4.39 ± 0.94 µM | 1.46 ± 0.36 µM | 3.06 ± 1.71 µM | 1.51 ± 0.71 µM | 5.18 ± 0.48 µM | 1.03 ± 0.2 µM | – | – | – | – | – | –
Clc1cccc(-c2cnc3c(C#Cc4cccnc4)snc3c2)c1 [Compound 3i, 6-(3-Chlorophenyl)-3-(pyridin-3-ylethynyl)isothiazolo[4,3-b]pyridine] | 21 nM | 21 nM | – | – | – | 0.18 µM | – | – | – | – | – | – | – | – | – | – | – | – | – | –
NC(=O)c1ccc(-c2cnc3c(C#Cc4cccnc4)snc3c2)cc1 [Compound 3m, 4-(3-(Pyridin-3-ylethynyl)isothiazolo[4,3-b]pyridin-6-yl)benzamide] | 1.6 nM | 1.6 nM | 0.19 ± 0.001 µM | > 20 µM | >20 µM | 0.041 µM | 2.41 ± 0.94 µM | 0.34 ± 0.78 µM | 3.23 ± 0.78 µM | 2.9 ± 1.72 µM | 2.25 ± 0.19 µM | 1 ± 0.57 µM | 6.53 ± 0.46 µM | 0.96 ± 0.3 µM | 1.82 ± 0.94 µM | – | – | – | – | –
COCCNC(=O)c1cccc(-c2cnc3c(C#Cc4cccnc4)snc3c2)c1 [Compound 3s, N-(2-Methoxyethyl)-3-(3-(pyridin-3-ylethynyl)isothiazolo[4,3-b]pyridin-6-yl)benzamide] | 1.9 nM | 1.9 nM | 0.4 ± 0.08 µM | > 20 µM | >10 µM | 0.03 µM | – | – | – | – | – | – | – | – | 5.65 ± 1.49 µM | – | – | – | – | –
COc1cc(-c2cnc3c(C#Cc4cccnc4)snc3c2)ccc1C(=O)O [Compound 4, 2-Methoxy-4-(3-(pyridin-3-ylethynyl)isothiazolo[4,3-b]pyridin-6-yl)benzoic acid] | 49 nM | 49 nM | 8.7 ± 1.7 µM | > 20 µM | >10 µM | 0.068 µM | – | – | – | – | – | – | – | – | 0.36 ± 0.19 µM | – | – | – | – | –
C(#Cc1snc2cc(-c3ccc(OCCN4CCCC4)cc3)cnc12)c1cccnc1 [Compound 5b, 3-(Pyridin-3-ylethynyl)-6-(4-(2-(pyrrolidin-1-yl)ethoxy)phenyl)isothiazolo[4,3-b]pyridine] | – | 5.5 nM | 0.71 ± 0.09 µM | > 20 µM | >10 µM | – | – | – | – | – | – | – | – | – | 1.42 ± 0.14 µM | – | – | – | – | –
COc1ccc(-c2cnc3c(C#Cc4ccccc4F)snc3c2)cc1OC [Compound 7e, 6-(3,4-Dimethoxyphenyl)-3-((2-fluorophenyl)ethynyl)isothiazolo[4,3-b]pyridine] | 62 nM | 62 nM | 16.8 ± 1.25 µM | 15.7 ± 1.34 µM | >20 µM | 0.28 µM | – | – | – | – | – | – | – | – | 0.55 ± 0.15 µM | – | – | – | – | –
COc1ccc(-c2cnc3c(C#Cc4cncc(C)c4)snc3c2)cc1OC [Compound 7i, 6-(3,4-Dimethoxyphenyl)-3-((5-methylpyridin-3-yl)ethynyl)isothiazolo[4,3-b]pyridine] | – | 2 nM | – | – | – | – | 14.6 ± 2.97 µM | ≥ 74 µM | > 100 µM | > 100 µM | > 100 µM | > 100 µM | > 100 µM | 70.2 ± 2.55 µM | – | 2 nM | – | – | – | –
COc1cncc(C#Cc2snc3cc(-c4ccc(OC)c(OC)c4)cnc23)c1 [Compound 7l, 6-(3,4-Dimethoxyphenyl)-3-((5-methoxypyridin-3-yl)ethynyl)isothiazolo[4,3-b]pyridine] | 3.3 nM | 3.3 nM | 1.64 ± 0.05 µM | > 20 µM | >10 µM | 0.039 µM | 1.79 ± 1.2 µM | 2.45 ± 0.85 µM | 5.15 ± 2.05 µM | 5.38 ± 0.56 µM | 5.25 ± 0.64 µM | 1.8 µM | 5.7 ± 1.27 µM | 1.85 ± 0.07 µM | 4.92 ± 0.93 µM | 3 nM | 6 fold | 200 fold | – | –
COC(=O)c1cncc(C#Cc2snc3cc(-c4ccc(OC)c(OC)c4)cnc23)c1 [Compound 7m, Methyl 5-((6-(3,4-dimethoxyphenyl)isothiazolo[4,3-b]pyridin-3-yl)ethynyl)nicotinate] | – | 120 nM | 1.16 ± 0.001 µM | > 20 µM | >10 µM | – | – | – | – | – | – | – | – | – | 2.56 ± 0.86 µM | – | – | – | – | –
COc1ccncc1C#Cc1snc2cc(-c3ccc(OC)c(OC)c3)cnc12 [Compound 7o, 6-(3,4-Dimethoxyphenyl)-3-((4-methoxypyridin-3-yl)ethynyl)isothiazolo[4,3-b]pyridine] | 19 nM | 19 nM | 0.92 ± 0.08 µM | < 10 µM | 7.69 ± 0.001 µM | 0.23 µM | – | – | – | – | – | – | – | – | – | – | – | – | – | –
COc1ccc(-c2cnc3c(C#Cc4cnccc4C)snc3c2)cc1OC [Compound 7p, 6-(3,4-Dimethoxyphenyl)-3-((4-methylpyridin-3-yl)ethynyl)isothiazolo[4,3-b]pyridine] | – | 33 nM | 4.01 ± 0.13 µM | > 20 µM | >10 µM | – | > 100 µM | > 100 µM | > 100 µM | > 100 µM | > 100 µM | > 100 µM | > 100 µM | 12.3 ± 1.77 µM | 0.83 ± 0.06 µM | – | – | – | – | –
COc1ccc(-c2cnc3c(C#Cc4ccc(C#N)nc4)snc3c2)cc1OC [Compound 7q, 5-((6-(3,4-Dimethoxyphenyl)isothiazolo[4,3-b]pyridin-3-yl)ethynyl)picolinonitrile] | – | > 10000 nM | – | – | – | > 30 µM | – | – | – | – | – | – | – | – | – | – | – | – | – | –
COc1ccc(-c2cnc3c(C#Cc4cncc(F)c4)snc3c2)cc1OC [Compound 7r, 6-(3,4-Dimethoxyphenyl)-3-((5-fluoropyridin-3-yl)ethynyl)isothiazolo[4,3-b]pyridine] | 98 nM | 98 nM | 1.85 ± 0.12 µM | > 20 µM | >10 µM | 0.11 µM | – | – | – | – | – | – | – | – | 1.92 ± 0.52 µM | – | – | – | – | –
COc1ccc(-c2cnc3c(C#Cc4cnc5ccccc5c4)snc3c2)cc1OC [Compound 7w, 6-(3,4-Dimethoxyphenyl)-3-(quinolin-3-ylethynyl)isothiazolo[4,3-b]pyridine] | 5690 nM | 5690 nM | 2.08 ± 0.1 µM | < 10 µM | >10 µM | 2 µM | – | – | – | – | – | – | – | – | – | – | – | – | 700 fold | only cytotoxicity was observed
Ic1cccc(/C=N/Nc2nc(N3CCOCC3)nc(N(c3ccccc3)c3ccccc3)n2)c1 [Vacuolin-1, reference compound] | – | – | – | – | – | – | 0.9 ± 0.13 µM | 1.87 ± 0.75 µM | 6.35 ± 1.8 µM | 1.46 ± 0.16 µM | 24.1 ± 1.21 µM | 26.4 ± 1.48 µM | 17.2 ± 3.08 µM | 16.6 ± 1.31 µM | – | – | – | – | – | –
